Laboratory results as given in patent US8450313B2, “2,3-diaryl- or heteroaryl-substituted 1,1,1-trifluoro-2-hydroxypropyl compounds” (Hoffmann-La Roche Inc., priority 2009, dated 2013).

Each compound was assayed against T1, full length human recombinant glucocorticoid receptor (Homo sapiens, UniProt P04150) (assay: Glucocorticoid Receptor Binding Assay (Glucocorticoid Receptor Competitor Assay far red kit, fluorescence polarization)). Details: competition with fluorescent GR ligand Fluormone GS Far Red, 3 hours at 22° C., pH 7.4; Ki calculated from IC50 by Cheng-Prusoff.
T1 construct: It contains some partially purified full length human recombinant glucocorticoid receptor; purchased Panvera/Invitrogen PV4302
T1 sequence (P04150 1-777): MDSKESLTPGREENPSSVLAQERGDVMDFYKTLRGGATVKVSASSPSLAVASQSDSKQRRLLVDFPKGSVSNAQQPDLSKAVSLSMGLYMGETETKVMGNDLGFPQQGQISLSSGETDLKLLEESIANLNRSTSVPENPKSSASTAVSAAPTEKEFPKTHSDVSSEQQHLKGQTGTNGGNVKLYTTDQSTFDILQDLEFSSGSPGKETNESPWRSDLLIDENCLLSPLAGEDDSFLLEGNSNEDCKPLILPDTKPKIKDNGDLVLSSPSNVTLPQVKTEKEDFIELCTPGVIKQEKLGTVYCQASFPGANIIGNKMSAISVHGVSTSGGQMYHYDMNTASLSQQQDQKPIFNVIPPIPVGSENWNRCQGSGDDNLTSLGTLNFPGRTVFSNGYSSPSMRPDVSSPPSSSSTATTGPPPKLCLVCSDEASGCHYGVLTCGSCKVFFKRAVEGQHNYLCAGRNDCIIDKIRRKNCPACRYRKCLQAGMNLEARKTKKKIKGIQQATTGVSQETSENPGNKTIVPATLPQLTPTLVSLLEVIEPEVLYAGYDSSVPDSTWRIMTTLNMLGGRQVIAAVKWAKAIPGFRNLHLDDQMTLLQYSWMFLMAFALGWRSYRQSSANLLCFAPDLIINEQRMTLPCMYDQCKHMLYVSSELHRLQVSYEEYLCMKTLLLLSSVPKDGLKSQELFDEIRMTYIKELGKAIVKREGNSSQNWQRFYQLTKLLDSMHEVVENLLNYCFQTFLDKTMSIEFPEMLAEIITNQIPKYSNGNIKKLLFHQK
Method in brief: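 Fluorescence polarization competition with partially purified full-length human recombinant GR, stabilizing peptide and Fluormone GS Far Red tracer in screening buffer pH 7.4; 3 hours at 22° C in the dark, read at 610–660 nm. IC50 from sigmoidal fit; Ki by Cheng-Prusoff.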

Question: Which Ki does the source give for `CC(c1ccc(Oc2ccc(F)c(C(=O)O)c2)cc1Cl)C(O)(c1ccc2c(c1)n(C)c(=O)n2C)C(F)(F)F` (centres unmarked) [Example 91, 5-{3-Chloro-4-[2-(1,3-dimethyl-2-oxo-2,3-dihydro-1H-benzoimidazol-5-yl)-3,3,3-trifluoro-2-hydroxy-1-methyl-propyl]phenoxy}-2-fluoro-benzoic acid] here?
Answer: 0.3 nM

Question: `C[C@@H](c1ccc(-c2ccc(C(=O)O)c(F)c2)cc1Cl)[C@](O)(c1ccc2oc(=O)n(C)c2c1)C(F)(F)F` [Example 119, 3′-Chloro-3-fluoro-4′-[(1S,2S)-3,3,3-trifluoro-2-hydroxy-1-methyl-2-(3-methyl-2-oxo-2,3-dihydro-benzooxazol-5-yl)-propyl]-biphenyl-4-carboxylic acid] was tested. Which Ki did it give?
Answer: 0.3 nM

Question: How did the Ki turn out when `C[C@H](c1ccc(-c2ccc(C(=O)O)c(F)c2)cc1Cl)[C@@](O)(c1ccc2oc(=O)n(C)c2c1)C(F)(F)F` [Example 120, 3′-Chloro-3-fluoro-4′-[(1R,2R)-3,3,3-trifluoro-2-hydroxy-1-methyl-2-(3-methyl-2-oxo-2,3-dihydro-benzooxazol-5-yl)-propyl]-biphenyl-4-carboxylic acid] was run?
Answer: 46 nM

Question: How did the Ki turn out when `CC(c1ccc(Oc2ccc(C(=O)O)c(Cl)c2)cc1Cl)C(O)(c1ccc(C#N)cc1)C(F)(F)F` (centres unmarked) [Example 156, 2-Chloro-4-{3-chloro-4-[2-(4-cyano-phenyl)-3,3,3-trifluoro-2-hydroxy-1-methyl-propyl]-phenoxy}-benzoic acid] was run?
Answer: 192 nM

Question: For `C[C@H](c1ccc(Oc2ccc(C(=O)O)c(Cl)c2)cc1Cl)[C@@](O)(c1ccc2c(c1)N(C)C(=O)CO2)C(F)(F)F` [Example 218, 2-Chloro-4-{3-chloro-4-[(1R,2R)-3,3,3-trifluoro-2-hydroxy-1-methyl-2-(4-methyl-3-oxo-3,4-dihydro-2H-benzo[1,4]oxazin-6-yl)-propyl]-phenoxy}-benzoic acid], which Ki is on record?
Answer: 119 nM

Question: For `C[C@@H](c1ccc(Oc2ccc(C(=O)O)c(Cl)c2)cc1Cl)[C@](O)(c1ccc2c(c1)N(C)C(=O)CO2)C(F)(F)F` [Example 219, 2-Chloro-4-{3-chloro-4-[(1S,2S)-3,3,3-trifluoro-2-hydroxy-1-methyl-2-(4-methyl-3-oxo-3,4-dihydro-2H-benzo[1,4]oxazin-6-yl)-propyl]-phenoxy}-benzoic acid], which Ki is on record?
Answer: 0.8 nM

Question: `C[C@H](c1ccc(Oc2ncc(C(=O)O)cc2Cl)cc1Cl)[C@@](O)(c1ccc2c(c1)N(C)C(=O)CO2)C(F)(F)F` [Example 223, 5-Chloro-6-{3-chloro-4-[(1R,2R)-3,3,3-trifluoro-2-hydroxy-1-methyl-2-(4-methyl-3-oxo-3,4-dihydro-2H-benzo[1,4]oxazin-6-yl)-propyl]-phenoxy}-nicotinic acid] was tested. Which Ki did it give?
Answer: 552 nM

Question: For `C[C@@H](c1ccc(Oc2ncc(C(=O)O)cc2Cl)cc1Cl)[C@](O)(c1ccc2c(c1)N(C)C(=O)CO2)C(F)(F)F` [Example 224, 5-Chloro-6-{3-chloro-4-[(1S,2S)-3,3,3-trifluoro-2-hydroxy-1-methyl-2-(4-methyl-3-oxo-3,4-dihydro-2H-benzo[1,4]oxazin-6-yl)-propyl]-phenoxy}-nicotinic acid], which Ki is on record?
Answer: 0.8 nM
